Assay results taken from patent US20240398752A1 (AJOU UNIVERSITY INDUSTRY-ACADEMIC COOPERATION FOUNDATION, priority 2021, published 2024).

Tests used:
in vivo = conditions: for clearance: CL; for CL renal: CLR; for half-life: Terminal half-life; for Vd: Vss; for Ae0-24 h: urine 24 hours; for reduction in AUC in the LC-ISN group compared to the LC group: isosakuranetin 15 mg/kg
Method: Blood collection was performed at 0, 1, 5, 15, 30, 45, 60, 90, 120, 180, 240, 360, 480, 600, and 720 minutes for intravenous administration of tofacitinib, and at 0, 5, 15, 30, 45, 60, 90, 120, 180, 240, 360, 480, 600, and 720 minutes for oral administration to quantify concentrations of tofacitinib in the plasma. Then, urine was collected for 24 hours to analyze the concentration of tofacitinib excreted in urine as well.

[1] = Method: In the experiment, the concentration of tofacitinib was set at 5, 10, 20, 50, 100, 200, and 500 μM, 1 mg of microsomes and nicotinamide adenine dinucleotide phosphate hydrogen-generating system (Corning Inc., Corning, NY, USA) were blended, and the total volume was adjusted to 1 mL with 0.1 M potassium phosphate buffer (pH 7.4), followed by incubation for 15 minutes at a rate of 50 oscillations per minutes in a water-bath (37° C.). The concentration (Km) of tofacitinib when Vmax, the maximum rate of drug metabolism (Vmax), was halved was measured by the Lineweaver-Burk plot. The intrinsic clearance (CLint) of the drug was calculated by dividing Vmax by Km.
[2] = rat, in vivo, iv, 10 mg/kg, tofacitinib 10 mg/kg intravenous, CON rats
[3] = rat, in vivo, iv, 10 mg/kg, tofacitinib 10 mg/kg intravenous, LC rats
[4] = rat, in vivo, iv, 10 mg/kg, tofacitinib 10 mg/kg intravenous, LC-ISN rats
[5] = rat, in vivo, po, 20 mg/kg, tofacitinib 20 mg/kg oral, CON rats
[6] = rat, in vivo, po, 20 mg/kg, tofacitinib 20 mg/kg oral, LC-ISN 15 rats
[7] = rat, in vivo, po, 20 mg/kg, tofacitinib 20 mg/kg oral, LC rats
[8] = tofacitinib 10 mg/kg intravenous
[9] = tofacitinib 10 mg/kg intravenous, CON rats
[10] = tofacitinib 10 mg/kg intravenous, LC rats
[11] = tofacitinib 10 mg/kg intravenous, LC-ISN rats
[12] = tofacitinib 20 mg/kg oral, CON rats
[13] = tofacitinib 20 mg/kg oral, LC rats
[14] = tofacitinib 20 mg/kg oral, LC-ISN 15 rats

C[C@@H]1CCN(C(=O)CC#N)C[C@@H]1N(C)c1ncnc2[nH]ccc12 [tofacitinib]
AUC (in vivo; rat, in vivo, iv, 10 mg/kg, AUC, tofacitinib 10 mg/kg intravenous, CON rats): 7330 ng·h/mL
AUC (in vivo; rat, in vivo, iv, 10 mg/kg, AUC, tofacitinib 10 mg/kg intravenous, LC rats): 18900 ng·h/mL
clearance (in vivo; [2]): 24.1 ± 6.27 mL/min/kg
clearance (in vivo; [3]): 11 ± 2.06 mL/min/kg
clearance (in vivo; [4]): 13.8 ± 1.73 mL/min/kg
CL renal (in vivo; [2]): 3.73 ± 1.09 mL/min/kg
CL renal (in vivo; [3]): 4.65 ± 2.74 mL/min/kg
CL renal (in vivo; [4]): 4.1 ± 1.64 mL/min/kg
half-life (in vivo; rat, in vivo, iv, 10 mg/kg, tofacitinib 10 mg/kg intravenous, CON (control) rats): 35.4 ± 19.2 min
half-life (in vivo; rat, in vivo, iv, 10 mg/kg, tofacitinib 10 mg/kg intravenous, LC rats (liver cirrhosis induced by DMN)): 113 ± 43.7 min
Vd (in vivo; [2]): 0.429 ± 0.253 L/kg
Vd (in vivo; [3]): 0.798 ± 0.177 L/kg
Vd (in vivo; [4]): 0.8 ± 0.326 L/kg
AUC (in vivo; rat, in vivo, po, 20 mg/kg, AUC, tofacitinib 20 mg/kg oral, CON rats): 6400 ng·h/mL
AUC (in vivo; rat, in vivo, po, 20 mg/kg, AUC, tofacitinib 20 mg/kg oral, LC rats): 33800 ng·h/mL
AUC (in vivo; rat, in vivo, po, 20 mg/kg, AUC, tofacitinib 20 mg/kg oral, LC-ISN 15 rats): 20700 ng·h/mL
CL renal (in vivo; [5]): 6.98 ± 2.99 mL/min/kg
CL renal (in vivo; [6]): 5.71 ± 2.47 mL/min/kg
Cmax (in vivo; [5]): 3530 ± 1460 ng/mL
Cmax (in vivo; [7]): 9100 ± 1260 ng/mL
Cmax (in vivo; [6]): 6080 ± 1990 ng/mL
Tmax (in vivo; [5]): 50 min
Tmax (in vivo; [7]): 55.7 min
Tmax (in vivo; [6]): 85.7 min
increase of AUC in the LC group compared to the CON group (in vivo; [8]): 158%
reduction in nonrenal clearance (CLNR) in the LC group compared to the CON group (in vivo; [8]): 69.9%
reduction in total body clearance (CL) in the LC group compared to the CON group (in vivo; [8]): 54.4%
CLNR (in vivo; [9]): 21.1 ± 4.57 mL/min/kg
GI24 h (in vivo; [9]): 0.164 ± 0.102 % of dose
Ae0-24 h (in vivo; [9]): 13.9 ± 2.28 % of dose
CLNR (in vivo; [10]): 6.35 ± 1.27 mL/min/kg
GI24 h (in vivo; [10]): 2.07 ± 2.12 % of dose
Ae0-24 h (in vivo; [10]): 40.2 ± 18.9 % of dose
AUC (in vivo; [11]): 12300 ± 1780 ng·h/mL
CLNR (in vivo; [11]): 9.68 ± 2.40 mL/min/kg
GI24 h (in vivo; [11]): 0.166 ± 0.135 % of dose
Terminal half-life (in vivo; tofacitinib 10 mg/kg intravenous, LC-ISN rats (LC treated with isosakuranetin 15 mg/kg)): 58.2 ± 16.8 min
Ae0-24 h (in vivo; [11]): 30.1 ± 12.3 % of dose
reduction in AUC in the LC-ISN group compared to the LC group (in vivo; [8]): 35.1%
increase of AUC in the LC group compared to the CON group (in vivo; tofacitinib 20 mg/kg oral): 429%
F (in vivo; [12]): 43.6%
GI24 h (in vivo; [12]): 0.106 ± 0.101 % of dose
Ae0-24 h (in vivo; [12]): 11.8 ± 4.08 % of dose
CLR (in vivo; [13]): 3.62 ± 1.78 mL/min/kg
F (in vivo; [13]): 89.5%
GI24 h (in vivo; [13]): 1.73 ± 2.04 % of dose
Ae0-24 h (in vivo; [13]): 35.8 ± 16.9 % of dose
F (in vivo; [14]): 84.1%
GI24 h (in vivo; [14]): 0.340 ± 0.288 % of dose
Ae0-24 h (in vivo; [14]): 35.9 ± 16.8 % of dose
reduction in AUC in the LC-ISN group compared to the LC group (in vivo; tofacitinib 20 mg/kg oral): 38.9%
Km in the three groups (CON, LC, LC-ISN) ([1]; hepatic microsome): No significant difference
decrease of Vmax in the LC group compared to the CON group ([1]; hepatic microsome): 63.4%
increase of Vmax in the LC-ISN group compared to the LC group ([1]; hepatic microsome): 204%
CLint of the LC-ISN group recovered to % of the CON group ([1]; hepatic microsomes): 92.2%
decrease of CLint in the LC group compared to the CON group ([1]; hepatic microsomes): 64.9%
increase of CLint in the LC-ISN group compared to the LC group ([1]; hepatic microsomes): 163%
CLint in the LC group compared to the CON group and the LC-ISN group ([1]; small intestinal microsome): no statistically significant difference
